Some test systems named below: TK-10 renal; HOP-62 NSCLC; OVCAR-3 ovarian; CCRF-CEM leukemia; MOLT-4 leukemia; IGROV1 ovarian; SW-620 colon; SR leukemia; M14 melanoma; SK-OV-3 ovarian.
Common to all, as to test: DTP human tumour cell line panel, 48 h

Consider 23 compounds from PubChem BioAssay (NCI).

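Method: 48-hour compound exposure of cells in 96-well plates, five concentrations, linear interpolation of endpoints. At the TGI there is no net growth.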

In general, TGI refers to the concentration giving total growth inhibition. A high value points to less potent growth arrest.

In the case of `C[N+]12C=CC=C1C(N1CCCC1)c1sc(-c3ccc(Cl)cc3)cc12` (stereo not given), the TGI with TK-10 renal turned out to be 40.7 µM; in the test with HOP-62 NSCLC, 31.3 µM; with OVCAR-3 ovarian it was 26.5 µM; in the test with CCRF-CEM leukemia, 62.8 µM; in the test on MOLT-4 leukemia, 53.5 µM; in the test with IGROV1 ovarian, 39 µM. Also, the TGI in the test with SW-620 colon is 29.9 µM; with SR leukemia it was 50.1 µM; in the test with M14 melanoma it was 30.9 µM; in the test with SK-OV-3 ovarian it was 32.8 µM.

In the case of `CC(C)(C)OC(=O)N(CCCN)CCCCN(CCCN)C(=O)OC(C)(C)C`, the TGI in the test with TK-10 renal, with HOP-62 NSCLC, with OVCAR-3 ovarian, with CCRF-CEM leukemia, in the test on MOLT-4 leukemia and with IGROV1 ovarian was greater than 100 µM throughout. For the same compound, the total growth inhibition concentration (TGI) in the test on SW-620 colon, in the test on SR leukemia, in the test with M14 melanoma and with SK-OV-3 ovarian was greater than 100 µM in each case.

On to `C=C(Cl)C(Cl)(CBr)CCC(Cl)C(C)C` (stereo not given), for which the TGI in the test with TK-10 renal was 3.12 µM; in the test with HOP-62 NSCLC, 2.94 µM; in the test on OVCAR-3 ovarian, 3.45 µM; in the test on CCRF-CEM leukemia it was greater than 100 µM; with MOLT-4 leukemia, greater than 62.9 µM; with IGROV1 ovarian, 30.8 µM. For the same compound, the TGI in the test on SW-620 colon was 11.8 µM; in the test on SR leukemia, greater than 54.7 µM; in the test on M14 melanoma, 42.6 µM; in the test on SK-OV-3 ovarian, greater than 89.5 µM.

Take `C[C@H]1C(=O)C2=C[C@H]1CCC(=O)[C@]1(C)CCCC(C)(C)[C@H]1C[C@H]2O`: the TGI in the test with TK-10 renal was 28.7 µM; in the test on HOP-62 NSCLC, greater than 100 µM; with OVCAR-3 ovarian, 84.9 µM; with CCRF-CEM leukemia it was 75.4 µM; with MOLT-4 leukemia, greater than 100 µM; in the test on IGROV1 ovarian, greater than 100 µM. Further, the TGI in the test with SW-620 colon is 28.2 µM; in the test with SR leukemia, 61.3 µM; in the test with M14 melanoma, 25.9 µM; in the test on SK-OV-3 ovarian, greater than 100 µM.

As for `CCC1(CC)C(=O)N(C(=O)c2ccc(Cl)cc2)N(C(=O)c2ccccc2Cl)C1=O`, the TGI is greater than 100 µM in the test with TK-10 renal; greater than 100 µM in the test on HOP-62 NSCLC; greater than 100 µM with OVCAR-3 ovarian; greater than 100 µM in the test on CCRF-CEM leukemia; 52.2 µM in the test with MOLT-4 leukemia; 16.3 µM with IGROV1 ovarian. Also, the TGI with SW-620 colon is 89.8 µM; in the test on SR leukemia, greater than 100 µM; in the test with M14 melanoma it was greater than 100 µM; with SK-OV-3 ovarian it was greater than 100 µM.

Regarding `O=C1NC(N2CCCC(CO)C2)=N/C1=C\c1ccc(O)cc1` (stereo not given), the TGI in the test on TK-10 renal, in the test on HOP-62 NSCLC, in the test on OVCAR-3 ovarian, with CCRF-CEM leukemia, with MOLT-4 leukemia and with IGROV1 ovarian was greater than 100 µM each time. In addition, the TGI with SW-620 colon, with SR leukemia, in the test on M14 melanoma and in the test on SK-OV-3 ovarian was greater than 100 µM each time.

For `Clc1ccc(CCn2ccc3ccccc32)c(Cl)c1`, the TGI in the test with TK-10 renal, with HOP-62 NSCLC, with OVCAR-3 ovarian, in the test on CCRF-CEM leukemia, in the test with MOLT-4 leukemia and in the test with IGROV1 ovarian was greater than 100 µM throughout. In addition, the TGI with SW-620 colon, in the test with SR leukemia, in the test with M14 melanoma and in the test on SK-OV-3 ovarian was greater than 100 µM each time.

Consider `Nc1c2ccccc2nc2ccc(C(=O)Nc3ccc(S(N)(=O)=O)cc3)cc12`, for which the TGI in the test on TK-10 renal, with HOP-62 NSCLC, with OVCAR-3 ovarian, in the test on CCRF-CEM leukemia, in the test on MOLT-4 leukemia and in the test with IGROV1 ovarian was greater than 100 µM throughout. Further, the TGI in the test on SW-620 colon, with SR leukemia, in the test with M14 melanoma and in the test with SK-OV-3 ovarian was greater than 100 µM in each case.

Regarding `COc1ccc(/C=N/NC(=O)c2ccccc2Nc2ccccc2C(=O)N/N=C/c2ccc(OC)c(OC)c2)cc1OC`, the TGI in the test with TK-10 renal, with HOP-62 NSCLC, with OVCAR-3 ovarian, in the test with CCRF-CEM leukemia, with MOLT-4 leukemia and in the test on IGROV1 ovarian was greater than 100 µM each time. Also, the TGI in the test on SW-620 colon, in the test with SR leukemia, with M14 melanoma and in the test with SK-OV-3 ovarian was greater than 100 µM each time.

Turning to `Cc1ccc(-c2cn3c(nc4ccccc43)c(C)n2)cc1`, the TGI in the test on TK-10 renal is greater than 100 µM; in the test with HOP-62 NSCLC, greater than 100 µM; in the test with OVCAR-3 ovarian it was greater than 100 µM; in the test with CCRF-CEM leukemia, greater than 100 µM; with MOLT-4 leukemia, greater than 100 µM; in the test with IGROV1 ovarian it was greater than 31.6 µM. Also, the TGI in the test on SW-620 colon was greater than 100 µM; in the test with SR leukemia, greater than 100 µM; with M14 melanoma it was greater than 100 µM; with SK-OV-3 ovarian it was 41.5 µM.

With `CC(C)(C)C(=O)C(C#N)C(=O)C(C)(C)C`, the TGI in the test with TK-10 renal, in the test with HOP-62 NSCLC, in the test with OVCAR-3 ovarian, with CCRF-CEM leukemia, in the test with MOLT-4 leukemia and with IGROV1 ovarian was greater than 100 µM in each case. Also, the TGI was greater than 100 µM in the test with SW-620 colon, 50 µM in the test on SR leukemia, greater than 100 µM with M14 melanoma and greater than 100 µM with SK-OV-3 ovarian.

As for `CC(C)Oc1c(O)c2c3c(oc(=O)n3C=CC2c2ccccc2F)c1OC(C)C` (stereo not given), the TGI with TK-10 renal was greater than 100 µM; with HOP-62 NSCLC, greater than 100 µM; with OVCAR-3 ovarian it was greater than 100 µM; with CCRF-CEM leukemia, 97.6 µM; with MOLT-4 leukemia it was 59.3 µM; with IGROV1 ovarian, greater than 100 µM. For the same compound, the TGI is greater than 100 µM in the test on SW-620 colon, 46.1 µM in the test on SR leukemia, 65.4 µM in the test on M14 melanoma and greater than 100 µM in the test on SK-OV-3 ovarian.

In the case of `O=C1N[C@@H](c2c[nH]c3ccc(Br)cc23)C(=O)N[C@H]1c1c[nH]c2ccc(Br)cc12`, the TGI with TK-10 renal stood at 21.7 µM; with HOP-62 NSCLC, 27 µM; with OVCAR-3 ovarian, 28.4 µM; with CCRF-CEM leukemia, 24 µM; in the test on MOLT-4 leukemia, 20.1 µM; in the test on IGROV1 ovarian, 29.4 µM. The TGI in the test with SW-620 colon came out at 26.2 µM; in the test with SR leukemia, 19.3 µM; with M14 melanoma, 21.2 µM; in the test on SK-OV-3 ovarian, 31.1 µM.

On to `COc1cc(C2c3cc4c(c(O)c3C(=O)C3CCC(=O)N32)OCO4)cc(OC)c1OC` (stereo not given), for which the TGI in the test with TK-10 renal, in the test with HOP-62 NSCLC, in the test on OVCAR-3 ovarian, with CCRF-CEM leukemia, in the test on MOLT-4 leukemia and with IGROV1 ovarian was greater than 100 µM each time. In addition, the TGI with SW-620 colon, in the test on SR leukemia, in the test on M14 melanoma and with SK-OV-3 ovarian was greater than 100 µM each time.

Turning to `O=C1CSC(c2ccc(Cl)cc2)N1c1ccc(-n2c(-c3ccccc3)nc3ccccc3c2=O)cc1` (stereo not given), the TGI in the test on TK-10 renal, in the test on HOP-62 NSCLC, in the test with OVCAR-3 ovarian, in the test on CCRF-CEM leukemia, with MOLT-4 leukemia and in the test on IGROV1 ovarian was greater than 100 µM throughout. For the same compound, the total growth inhibition concentration (TGI) in the test on SW-620 colon, in the test with SR leukemia, in the test on M14 melanoma and in the test with SK-OV-3 ovarian was greater than 100 µM each time.

Turning to `COc1cc2c(oc(=O)c3c4oc([Si](C)(C)C)cc4cc(OC)c23)c2cccc(O)c12`, the total growth inhibition concentration (TGI) in the test with TK-10 renal, in the test on HOP-62 NSCLC, in the test on OVCAR-3 ovarian, with CCRF-CEM leukemia, with MOLT-4 leukemia and in the test on IGROV1 ovarian was greater than 100 µM throughout. Also, the TGI with SW-620 colon, with SR leukemia, with M14 melanoma and in the test on SK-OV-3 ovarian was greater than 100 µM in each case.

As for `O=c1n(CCO)nc2n1CCCN2`, the TGI in the test on TK-10 renal, in the test on HOP-62 NSCLC, in the test with OVCAR-3 ovarian, in the test on CCRF-CEM leukemia, with MOLT-4 leukemia and with IGROV1 ovarian was greater than 100 µM each time. Also, the TGI in the test with SW-620 colon, in the test with SR leukemia, in the test on M14 melanoma and in the test on SK-OV-3 ovarian was greater than 100 µM each time.

Regarding `COc1ccccc1C1C(Cl)C(=O)N1NC(=O)Cc1ccccc1` (stereo not given), the TGI with TK-10 renal, with HOP-62 NSCLC, in the test on OVCAR-3 ovarian, in the test on CCRF-CEM leukemia, in the test with MOLT-4 leukemia and with IGROV1 ovarian was greater than 100 µM in each case. Also, the TGI in the test with SW-620 colon, in the test on SR leukemia, in the test on M14 melanoma and in the test with SK-OV-3 ovarian was greater than 100 µM throughout.

Regarding `O=C(O)CCCCCNC(=O)CCC(CN(CC(=O)OCc1ccccc1)CC(=O)OCc1ccccc1)N(CC(=O)OCc1ccccc1)CC(=O)OCc1ccccc1` (stereo not given), the TGI in the test on TK-10 renal is 29.9 µM; with HOP-62 NSCLC it was 41 µM; with OVCAR-3 ovarian, 33.9 µM; in the test on CCRF-CEM leukemia it was 39.7 µM; in the test with MOLT-4 leukemia, 37.2 µM; with IGROV1 ovarian, 33.8 µM. The TGI with SW-620 colon stood at 45.3 µM; in the test with SR leukemia, 42 µM; in the test on M14 melanoma, 32.3 µM; in the test on SK-OV-3 ovarian, 26.1 µM.

For the compound `COc1cccc(C(=O)C(O)c2cccc(OC)c2OC)c1OC` (stereo not given), the TGI in the test with TK-10 renal, in the test on HOP-62 NSCLC, with OVCAR-3 ovarian, with CCRF-CEM leukemia, in the test on MOLT-4 leukemia and with IGROV1 ovarian was greater than 100 µM throughout. Moreover, the TGI with SW-620 colon, in the test on SR leukemia, in the test with M14 melanoma and in the test with SK-OV-3 ovarian was greater than 100 µM each time.

For `Cc1cc(C)n(CN(Cn2nc(C)cc2C)c2ccc(N(Cn3nc(C)cc3C)Cn3nc(C)cc3C)cc2)n1`, the TGI is 69.8 µM with TK-10 renal; 52.7 µM with HOP-62 NSCLC; 49.3 µM in the test on OVCAR-3 ovarian; 63.9 µM in the test with CCRF-CEM leukemia; greater than 100 µM in the test on MOLT-4 leukemia; 50.7 µM in the test with IGROV1 ovarian. Moreover, the TGI in the test with SW-620 colon was 61.4 µM; with SR leukemia, greater than 100 µM; in the test on M14 melanoma, 36.5 µM; in the test on SK-OV-3 ovarian, 75.2 µM.

In the case of `CC(C)(C)OC(=O)N1CC(COS(C)(=O)=O)c2ccc(O)cc21` (stereo not given), the TGI stood at 8.76 µM in the test on TK-10 renal; 8.05 µM with HOP-62 NSCLC; 7.25 µM in the test on OVCAR-3 ovarian; 3.06 µM in the test with CCRF-CEM leukemia; 3.92 µM in the test with MOLT-4 leukemia; 12.1 µM in the test with IGROV1 ovarian. Also, the TGI came to 9.57 µM in the test on SW-620 colon, 5.31 µM with SR leukemia, 3.14 µM in the test with M14 melanoma and 8.88 µM with SK-OV-3 ovarian.

As for `N#Cc1c(C#N)c(-c2ccco2)n(/N=C/c2ccco2)c1N`, the concentration for total growth inhibition (TGI) in the test on TK-10 renal, with HOP-62 NSCLC, with OVCAR-3 ovarian, in the test with CCRF-CEM leukemia, in the test on MOLT-4 leukemia and in the test on IGROV1 ovarian was greater than 100 µM throughout. Moreover, the TGI with SW-620 colon, in the test with SR leukemia, with M14 melanoma and in the test with SK-OV-3 ovarian was greater than 100 µM in each case.
